What was measured:
Format in all cases: cell-based
[1] = test system: NCI-H929 (multiple myeloma); assay: Inhibition of cell proliferation, CellTiter-Glo, NCI-H929; details: Homo sapiens, 72 h
Summary of the method: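 Cells were grown in medium with 10% FBS at 37° C, 5% CO2. Cell number was read as CellTiter-Glo luminescence (cellular ATP), with untreated wells as control.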

[2] = target: T1, IR (NIH-3T3 cells over expressing human IGF-1R or IR) (Homo sapiens, UniProt P06213); assay: IR cellular autophosphorylation (DELFIA); details: NIH-3T3 cells over expressing IR, insulin stimulated
T1 construct: expressed in transfected cells; host or cells: NIH-3T3 (mouse fibroblasts)
T1 sequence (P06213 28-1382): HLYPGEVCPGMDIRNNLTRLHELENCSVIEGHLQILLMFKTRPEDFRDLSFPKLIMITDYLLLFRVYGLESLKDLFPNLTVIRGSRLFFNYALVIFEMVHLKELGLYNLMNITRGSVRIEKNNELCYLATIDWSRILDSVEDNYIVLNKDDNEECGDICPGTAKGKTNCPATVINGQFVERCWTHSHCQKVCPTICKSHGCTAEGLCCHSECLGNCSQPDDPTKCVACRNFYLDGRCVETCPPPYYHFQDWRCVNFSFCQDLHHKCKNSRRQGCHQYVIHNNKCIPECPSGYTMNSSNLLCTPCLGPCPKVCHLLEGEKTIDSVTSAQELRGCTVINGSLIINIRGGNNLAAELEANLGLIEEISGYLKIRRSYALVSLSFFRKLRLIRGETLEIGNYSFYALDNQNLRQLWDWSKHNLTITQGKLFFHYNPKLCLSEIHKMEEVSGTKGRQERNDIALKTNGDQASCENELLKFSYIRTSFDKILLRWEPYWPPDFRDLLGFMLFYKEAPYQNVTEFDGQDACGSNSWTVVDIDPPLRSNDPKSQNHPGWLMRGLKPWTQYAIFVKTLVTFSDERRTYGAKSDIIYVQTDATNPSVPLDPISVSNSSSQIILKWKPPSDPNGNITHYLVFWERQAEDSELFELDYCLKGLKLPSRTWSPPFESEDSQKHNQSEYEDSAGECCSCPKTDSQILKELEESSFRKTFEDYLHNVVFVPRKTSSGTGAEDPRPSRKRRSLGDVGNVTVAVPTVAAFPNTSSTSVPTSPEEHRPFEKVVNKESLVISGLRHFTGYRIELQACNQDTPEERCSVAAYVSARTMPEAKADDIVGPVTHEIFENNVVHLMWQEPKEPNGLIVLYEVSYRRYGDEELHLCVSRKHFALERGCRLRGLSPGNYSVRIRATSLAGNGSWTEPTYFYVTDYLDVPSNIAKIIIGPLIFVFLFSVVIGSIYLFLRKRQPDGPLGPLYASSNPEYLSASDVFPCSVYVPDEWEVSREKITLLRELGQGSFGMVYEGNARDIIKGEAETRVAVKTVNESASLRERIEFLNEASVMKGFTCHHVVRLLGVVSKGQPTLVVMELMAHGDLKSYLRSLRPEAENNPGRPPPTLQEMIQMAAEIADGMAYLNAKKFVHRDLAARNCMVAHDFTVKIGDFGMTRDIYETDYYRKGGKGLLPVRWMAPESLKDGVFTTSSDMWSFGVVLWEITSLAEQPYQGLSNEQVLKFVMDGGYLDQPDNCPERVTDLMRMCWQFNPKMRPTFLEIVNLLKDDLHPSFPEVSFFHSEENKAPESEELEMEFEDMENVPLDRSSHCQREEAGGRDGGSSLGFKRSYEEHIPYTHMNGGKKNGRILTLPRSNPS
Summary of the method: (§1)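 Readout: DELFIA on lysates, with anti-IGF-1R or anti-IR capture and europium anti-pTyr detection, expressed relative to 100% ligand-stimulated signal. Human IGF-1R- or IR-overexpressing NIH-3T3 cells got compound (1.5 nM–30 uM) for 2 h before 15 min IGF-1 (30 ng/mL) or insulin (3 ug/mL).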

[3] = target: T2, human IGF-1R (NIH-3T3 cells over expressing human IGF-1R) (Homo sapiens, UniProt P08069); assay: IGF-1R cellular autophosphorylation (DELFIA); details: IGF-1 stimulated
T2 construct: expressed in transfected cells; host or cells: NIH-3T3 (mouse fibroblasts)
T2 sequence (P08069 31-1367): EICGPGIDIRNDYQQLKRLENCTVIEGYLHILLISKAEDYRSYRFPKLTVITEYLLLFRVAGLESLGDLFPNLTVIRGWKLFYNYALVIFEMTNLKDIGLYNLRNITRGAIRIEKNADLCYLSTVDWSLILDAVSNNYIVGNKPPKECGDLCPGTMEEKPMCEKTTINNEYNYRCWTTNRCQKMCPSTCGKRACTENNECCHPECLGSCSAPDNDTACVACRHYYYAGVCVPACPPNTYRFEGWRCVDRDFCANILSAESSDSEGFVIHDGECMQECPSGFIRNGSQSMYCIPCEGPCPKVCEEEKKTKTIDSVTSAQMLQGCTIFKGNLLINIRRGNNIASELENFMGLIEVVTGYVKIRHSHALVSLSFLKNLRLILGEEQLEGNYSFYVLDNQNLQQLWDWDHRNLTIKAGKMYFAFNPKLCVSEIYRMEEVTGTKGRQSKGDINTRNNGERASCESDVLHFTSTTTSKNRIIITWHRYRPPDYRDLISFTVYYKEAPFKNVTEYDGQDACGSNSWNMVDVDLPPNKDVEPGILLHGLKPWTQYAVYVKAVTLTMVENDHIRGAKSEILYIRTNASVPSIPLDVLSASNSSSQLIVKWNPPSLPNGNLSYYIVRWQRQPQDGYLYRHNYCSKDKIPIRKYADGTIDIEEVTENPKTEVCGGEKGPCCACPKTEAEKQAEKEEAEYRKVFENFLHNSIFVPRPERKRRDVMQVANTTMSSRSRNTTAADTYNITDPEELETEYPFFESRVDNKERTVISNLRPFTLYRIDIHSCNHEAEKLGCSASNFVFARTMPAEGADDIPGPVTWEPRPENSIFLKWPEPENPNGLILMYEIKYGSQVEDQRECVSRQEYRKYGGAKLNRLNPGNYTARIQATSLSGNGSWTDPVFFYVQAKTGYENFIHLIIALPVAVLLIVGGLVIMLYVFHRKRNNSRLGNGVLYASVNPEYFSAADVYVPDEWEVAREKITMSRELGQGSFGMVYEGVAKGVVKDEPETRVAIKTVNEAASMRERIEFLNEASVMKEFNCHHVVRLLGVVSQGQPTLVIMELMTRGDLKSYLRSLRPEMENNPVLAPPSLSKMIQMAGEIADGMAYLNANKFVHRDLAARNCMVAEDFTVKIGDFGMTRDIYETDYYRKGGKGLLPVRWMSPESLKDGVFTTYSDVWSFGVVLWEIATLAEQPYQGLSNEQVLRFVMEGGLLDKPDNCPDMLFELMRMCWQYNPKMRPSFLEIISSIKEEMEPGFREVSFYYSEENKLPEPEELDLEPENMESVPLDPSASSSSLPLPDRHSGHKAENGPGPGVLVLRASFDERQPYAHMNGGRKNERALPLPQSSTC
Summary of the method: as §1

COLO205 (colon) = assay: Inhibition of cell proliferation, CellTiter-Glo, COLO205; details: Homo sapiens, COLO 205, 72 h
Summary of the method: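 Exponentially growing COLO205 cells in medium with 10% FBS were plated below 2000 cells/well at 37 °C, 5% CO2. Untreated wells served as controls.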

Row | SMILES | IC50 [1] [nM] | IC50 [2] [nM] | IC50 [3] [nM] | IC50 (COLO205 (colon)) [nM]
1 | CCOc1cc(N2CCN(CCS(C)(=O)=O)CC2)c(CC)cc1Nc1nccc(-c2c(-c3ccc(OCC)c(C(=O)Nc4c(F)cccc4F)c3)nc3ccccn23)n1 [Example 211, N-(2,6-difluorophenyl)-5-(3-{2-[(5-ethyl-2-(ethyloxy)-4-{4-[2-(methylsulfonyl)ethyl]-1-piperazinyl}phenyl)amino]-4-pyrimidinyl}imidazo[1,2-a]pyridin-2-yl)-2-(ethyloxy)benzamide] | < 250 | < 100 | < 100 | < 250
2 | CCCN1CCC(c2cc(OC)c(Nc3nccc(-c4c(-c5ccc(OCC)c(C(=O)Nc6c(F)cccc6F)c5)nc5ccccn45)n3)cc2C)CC1 [Example 158, N-(2,6-difluorophenyl)-2-(ethyloxy)-5-[3-(2-{[5-methyl-2-(methyloxy)-4-(1-propyl-4-piperidinyl)phenyl]amino}-4-pyrimidinyl)imidazo[1,2-a]pyridin-2-yl]benzamide] | < 250 | < 100 | < 100 | < 250
3 | COc1cc(N2CCC(CCS(C)(=O)=O)CC2)ccc1Nc1nccc(-c2c(-c3cccc(C(=O)Nc4c(F)cccc4F)c3)nc3ccccn23)n1 [Example 202, N-(2,6-difluorophenyl)-3-(3-{2-[(2-(methyloxy)-4-{4-[2-(methylsulfonyl)ethyl)-1-piperidinyl}phenyl)amino]-4-pyrimidinyl]imidazo[1,2-a]pyridin-2-yl)benzamide] | < 250 | 100 to 500 | 100 to 500 | 250 to 1000
4 | COc1cc(N2CCN(S(C)(=O)=O)CC2)c(C)cc1Nc1nccc(-c2c(-c3cccc(C(=O)Nc4c(F)cccc4F)c3)nc3ccccn23)n1 [Example 226, N-(2,6-difluorophenyl)-3-{3-[2-({5-methyl-2-(methyloxy)-4-[4-(methylsulfonyl)-1-piperazinyl]phenyl}amino)-4-pyrimidinyl]imidazo[1,2-a]pyridin-2-yl}benzamide] | < 250 | < 100 | < 100 | < 250
5 | CCc1cc(Nc2nccc(-c3c(-c4ccc(OC)c(C(=O)Nc5c(F)cccc5F)c4)nc4ccccn34)n2)c(OC)cc1N1CCC(CCS(C)(=O)=O)CC1 [Example 207, N-(2,6-difluorophenyl)-5-(3-{2-[(5-ethyl-2-(methyloxy)-4-{4-[2-(methylsulfonyl)ethyl]-1-piperidinyl}phenyl)amino]-4-pyrimidinyl}imidazo[1,2-a]pyridin-2-yl)-2-(methyloxy)benzamide] | < 250 | < 100 | < 100 | < 250
6 | COc1cc(N2CCC(N3CCN(S(C)(=O)=O)CC3)CC2)ccc1Nc1nccc(-c2c(-c3cccc(C(=O)Nc4c(F)cccc4F)c3)nc3c(F)cccn23)n1 [Example 192, N-(2,6-difluorophenyl)-3-(8-fluoro-3-{2-[(2-(methyloxy)-4-{4-[4-(methylsulfonyl)-1-piperazinyl]-1-piperidinyl}phenyl)amino]-4-pyrimidinyl}imidazo[1,2-a]pyridin-2-yl)benzamide] | 250 to 1000 | 100 to 500 | < 100 | 250 to 1000
7 | CCOc1cc(N2CCC(CCS(C)(=O)=O)CC2)c(CC)cc1Nc1nccc(-c2c(-c3ccc(OC)c(C(=O)Nc4c(F)cccc4F)c3)nc3ccccn23)n1 [Example 210, N-(2,6-difluorophenyl)-5-[3-{2-[(5-ethyl-2-(ethyloxy)-4-{4-[2-(methylsulfonyl)ethyl]-1-piperidinyl}phenyl)amino]-4-pyrimidinyl}imidazo[1,2-a]pyridin-2-yl)-2-(methyloxy)benzamide] | < 250 | < 100 | < 100 | < 250
8 | COc1ccc(-c2nc3ccccn3c2-c2ccnc(Nc3ccc(N4CCC(N5CCCCC5)CC4)c(C)c3OC)n2)cc1C(=O)Nc1c(F)cccc1F [Example 55, 5-[3-(2-{[4-(1,4′-bipiperidin-1′-yl)-3-methyl-2-(methyloxy)phenyl]amino}-4-pyrimidinyl)imidazo[1,2-a]pyridin-2-yl]-N-(2,6-difluorophenyl)-2-(methyloxy)benzamide] | > 1000 | > 500 | 100 to 500 | > 1000
9 | CCOc1cc(N2CCC(N3CCN(S(C)(=O)=O)CC3)CC2)c(CC)cc1Nc1nccc(-c2c(-c3ccc(OC)c(C(=O)Nc4c(F)cccc4F)c3)nc3ccccn23)n1 [Example 204, N-(2,6-difluorophenyl)-5-(3-{2-[(5-ethyl-2-(ethyloxy)-4-{4-[4-(methylsulfonyl)-1-piperazinyl]-1-piperidinyl]phenyl)amino]-4-pyrimidinyl}imidazo[1,2-a]pyridin-2-yl)-2-(methyloxy)benzamide] | < 250 | < 100 | < 100 | < 250
10 | COc1cc(N2CCC(N3CCN(CCF)CC3)CC2)c(C)cc1Nc1nccc(-c2c(-c3cccc(C(=O)Nc4c(F)cccc4F)c3)nc3ccccn23)n1 [Example 113, N-(2,6-difluorophenyl)-3-[3-(2-{[4-{4-[4-(2-fluoroethyl)-1-piperazinyl]-1-piperidinyl}-5-methyl-2-(methyloxy)phenyl]amino]-4-pyrimidinyl)imidazo[1,2-a]pyridin-2-yl]benzamide] | 250 to 1000 | < 100 | < 100 | > 1000
11 | COc1cc(N2CCC(N3CCC(CCS(C)(=O)=O)CC3)CC2)ccc1Nc1nccc(-c2c(-c3cccc(C(=O)Nc4c(F)cccc4F)c3)nc3ccccn23)n1 [Example 101, N-(2,6-difluorophenyl)-3-(3-{2-[(2-(methyloxy)-4-{4-[2-(methylsulfonyl)ethyl)-1,4′-bipiperidin-1′-yl]phenyl)amino]-4-pyrimidinyl}imidazo[1,2-a]pyridin-2-yl)benzamide] | < 250 | < 100 | < 100 | 250 to 1000
12 | COc1cc(N2CCN(C(C)C)CC2)ccc1Nc1nccc(-c2c(-c3ccc(OC)c(C(=O)Nc4c(F)cccc4F)c3)nc3ccccn23)n1 [Example 176, N-(2,6-difluorophenyl)-5-[3-(2-{[4-[4-(1-methylethyl)-1-piperazinyl]-2-(methyloxy)phenyl]-amino}-4-pyrimidinyl)imidazo[1,2-a]pyridin-2-yl]-2-(methyloxy)benzamide] | < 250 | < 100 | < 100 | 250 to 1000
13 | CCOc1cc(N2CCC(CCS(C)(=O)=O)CC2)c(C)cc1Nc1nccc(-c2c(-c3cccc(C(=O)Nc4c(F)cccc4F)c3)nc3ccccn23)n1 [Example 221, N-(2,6-difluorophenyl)-3-(3-{2-[(2-(ethyloxy)-5-methyl-4-{4-[2-(methylsulfonyl)ethyl]-1-piperidinyl}phenyl)amino]-4-pyrimidinyl}imidazo[1,2-a]pyridin-2-yl)benzamide] | < 250 | < 100 | < 100 | 250 to 1000
14 | COc1cc(N2CCN3CCOC[C@@H]3C2)ccc1Nc1nccc(-c2c(-c3ccc(OC)c(C(=O)Nc4c(F)cccc4F)c3)nc3ccccn23)n1 [Example 124, N-(2,6-difluorophenyl)-5-[3-(2-{[4-[(9aS)-hexahydropyrazino[2,1-c][1,4]oxazin-8(1H)-yl]-2-(methyloxy)phenyl]amino}-4-pyrimidinyl)imidazo[1,2-a]pyridin-2-yl]-2-(methyloxy)-benzamide] | < 250 | < 100 | < 100 | > 1000
15 | CCCN1CCC(c2ccc(Nc3nccc(-c4c(-c5ccc(OCC)c(C(=O)Nc6c(F)cccc6F)c5)nc5ccccn45)n3)c(OCC)c2)CC1 [Example 156, N-(2,6-difluorophenyl)-2-(ethyloxy)-5-[3-(2-{[2-(ethyloxy)-4-(1-propyl-4-piperidinyl)phenyl]amino}-4-pyrimidinyl)imidazo[1,2-a]pyridin-2-yl]benzamide] | < 250 | < 100 | < 100 | 250 to 1000
16 | COc1cc(C2CCN(CCS(C)(=O)=O)CC2)c(C)cc1Nc1nccc(-c2c(-c3cccc(C(=O)Nc4c(F)cccc4F)c3)nc3ccccn23)n1 [Example 165, N-(2,6-difluorophenyl)-3-(3-{2-[(5-methyl-2-(methyloxy)-4-{1-[2-(methylsulfonyl)ethyl]-4-piperidinyl}phenyl)amino]-4-pyrimidinyl}imidazo[1,2-a]pyridin-2-yl)benzamide] | < 250 | < 100 | < 100 | 250 to 1000
17 | COc1cc(N2CCC(N3CCN(CCF)CC3)CC2)ccc1Nc1nccc(-c2c(-c3cccc(C(=O)Nc4c(F)cccc4F)c3)nc3c(F)cccn23)n1 [Example 188, N-(2,6-difluorophenyl)-3-[8-fluoro-3-(2-{[4-{4-[4-(2-fluoroethyl)-1-piperazinyl]-1-piperidinyl}-2-(methyloxy)phenyl]amino}-4-pyrimidinyl)imidazo[1,2-a]pyridin-2-yl]benzamide] | 250 to 1000 | 100 to 500 | < 100 | > 1000
18 | CCCc1cc(C2CCN(CCS(C)(=O)=O)CC2)ccc1Nc1nccc(-c2c(-c3cccc(C(=O)Nc4c(F)cccc4F)c3)nc3ccccn23)n1 [Example 166, N-(2,6-difluorophenyl)-3-(3-{2-[(4-{1-[2-(methylsulfonyl)ethyl]-4-piperidinyl}-2-propylphenyl)amino]-4-pyrimidinyl}imidazo[1,2-a]pyridin-2-yl)benzamide] | 250 to 1000 | 100 to 500 | < 100 | 250 to 1000

Reference: patent publication US20100216779A1 (GLAXOSMITHKLINE LLC, priority 2007, published 2010)
